For 20 compounds, EC50 results are on record in US20100272680A1, “Piperidinyl Cyclic Amido Antiviral Agents” (priority 2009, published 2010).

As a reminder, the EC50 is the concentration giving half of the maximal effect. Read a low EC50 as a more potent agent.

In assay [1] the test system is HCV Genotype 1A Replicon. In words: Replicon assay, genotype 1a subgenomic replicon, luciferase readout. The class given is cell-based. The conditions noted are these: Hepatitis C virus, 48 h, Table 3; luciferase activity after 48 hours. The method, then:
(§1) Compounds were assayed for activity against HCV using the genotype 1a and 1b subgenomic replicon model systems. Stable cell lines bearing the genotype 1a and 1b replicons were used for screening of compounds. Both replicons are bicistonic and contain the firefly luciferase gene. The ET cell line is stably transfected with RNA transcripts harboring a I389luc-ubi-neo/NS3-3′/ET replicon with firefly luciferase-ubiquitin-neomycin phosphotransferase fusion protein and EMCV-IRES driven NS3-5B polyprotein containing the cell culture adaptive mutations (E1202G; T12801; K1846T) (Krieger at al, 2001 and unpublished). The genotype 1a replicon is a stable cell line licensed from Apath LLC, modified to contain the firefly luciferase gene. The cells were grown in DMEM, supplemented with 10% fetal calf serum, 2 mM Glutamine, Penicillin (100 IU/mL)/Streptomycin (100 μg/mL), 1× nonessential amino acids, and 250-500 μg/mL G418 (“Geneticin”). They were all available through Life Technologies (Bethesda, Md.). The cells were plated at 0.5×10^4 cells/well in 384 well plates containing compounds. The final concentration of compounds ranged between 0.03 μM to 50 μm and the final DMSO concentration of 0.5-1%.
(§2) Luciferase activity was measured 48 hours later by adding a Steady glo (Promega, Madison, Wis.). Percent inhibition of replication data was plotted relative to no compound control. Under the same condition, cytotoxicity of the compounds was determined using cell titer glo (Promega, Madison, Wis). IC50s were determined from a 10 point dose response curve using 3-4-fold serial dilution for each compound, which spans a concentration range >1000 fold. BioAssay determines the level of inhibition for each compound by normalizing cross-talk corrected plate values against the negative […] controls to determine Percent Inhibition:
(§3) These normalized values are exported to EC50 where they are plotted against the molar compound concentrations using the standard four parameter logistic equation: […]
(§4) Some EC50 measurements were repeated a second time and for both 1A and 1B genotypes after those reported in Table 2 for compounds 101-108 and the repeated data was reported in Table 3.
(In general: Replicon systems follow genome replication, usually without infectious particles.)

Assay [2] concerns HCV Genotype 1B Replicon. Kind of assay: Replicon assay, genotype 1b subgenomic replicon (ET cell line), luciferase readout. The class given is cell-based. The conditions noted are these: Hepatitis C virus, 48 h, Table 3; luciferase activity after 48 hours. The method, then:
as §1, §2, §3, §4

Regarding `Cc1ccc(-c2cc(C(F)(F)F)c3nc(C(=O)N4CCC(N5CCOC5=O)CC4)c(Cl)n3c2)o1` [Compound 133], the EC50 in assay [1] amounted to 110 nM; in assay [2] it was 3720 nM.
`O=C(c1nc2c(C(F)(F)F)cc(C3CCCO3)cn2c1Cl)N1CCC(N2CCOC2=O)CC1` (stereo not shown) [Compound 134, 3-(1-{[3-chloro-6-(tetrahydro-2-furanyl)-8-(trifluoromethyl)imidazo[1,2-a]pyridin-2-yl]carbonyl}-4-piperidinyl)-1,3-oxazolidin-2-one]: the EC50 in assay [1] is 320 nM; in assay [2], 2190 nM.
Taken in the same sequence, the figures for `CCOc1cc(C(F)(F)F)c2nc(C(=O)N3CCC(N4CCOC4=O)CC3)c(Cl)n2c1` [Compound 135, 3-(1-{[3-chloro-6-(ethyloxy)-8-(trifluoromethyl)imidazo[1,2-a]pyridin-2-yl]carbonyl}-4-piperidinyl)-1,3-oxazolidin-2-one] were 70 nM and 220 nM.
With `O=C(c1nc2c(C(F)(F)F)cc(-c3cccnc3)cn2c1Cl)N1CCC(N2CCOC2=O)CC1` [Compound 136, 3-(1-{[3-chloro-6-(3-pyridinyl)-8-(trifluoromethyl)imidazo[1,2-a]pyridin-2-yl]carbonyl}-4-piperidinyl)-1,3-oxazolidin-2-one], the EC50 was found to be 320 nM in assay [1] and 1840 nM in assay [2].
For the compound `O=C(c1nc2c(C(F)(F)F)cc(C3CCOC3)cn2c1Cl)N1CCC(N2CCOC2=O)CC1` (stereo not shown) [Compound 137, 3-(1-{[3-chloro-6-(tetrahydro-3-furanyl)-8-(trifluoromethyl)imidazo[1,2-a]pyridin-2-yl]carbonyl}-4-piperidinyl)-1,3-oxazolidin-2-one], the EC50 was 310 nM in assay [1] and 1270 nM in assay [2].
Turning to `CC(C)Oc1cc(C(F)(F)F)c2nc(C(=O)N3CCC(N4CCOC4=O)CC3)c(Cl)n2c1` [Compound 138, 3-(1-{[3-chloro-6-[(1-methylethyl)oxy]-8-(trifluoromethyl)imidazo[1,2-a]pyridin-2-yl]carbonyl}-4-piperidinyl)-1,3-oxazolidin-2-one], the EC50 in assay [1] was 280 nM; in assay [2] it was 420 nM.
Turning to `O=C(c1nc2c(C(F)(F)F)cc(-n3ccnc3)cn2c1Cl)N1CCC(N2CCOC2=O)CC1` [Compound 139, 3-(1-{[3-chloro-6-(1H-imidazol-1-yl)-8-(trifluoromethyl)imidazo[1,2-a]pyridin-2-yl]carbonyl}-4-piperidinyl)-1,3-oxazolidin-2-one], the EC50 in assay [1] is 2660 nM; in assay [2], not below 5010 nM.
For `CC(C)Cc1cc(C(F)(F)F)c2nc(C(=O)N3CCC(N4C(=O)COC4=O)CC3)c(Cl)n2c1` [Compound 140, 3-(1-{[3-chloro-6-(2-methylpropyl)-8-(trifluoromethyl)imidazo[1,2-a]pyridin-2-yl]carbonyl}-4-piperidinyl)-1,3-oxazolidine-2,4-dione], the EC50 in assay [1] was 50 nM; in assay [2] it was 150 nM.
For `CCC(C)c1cc(C(F)(F)F)c2nc(C(=O)N3CCC(N4CCOC4=O)CC3)c(Cl)n2c1` (stereo not shown) [Compound 141, 3-(1-{[3-chloro-6-(1-methylpropyl)-8-(trifluoromethyl)imidazo[1,2-a]pyridin-2-yl]carbonyl}-4-piperidinyl)-1,3-oxazolidin-2-one] the same measures were 160 nM and 550 nM.
As for `O=C(c1nc2c(C(F)(F)F)cc(Br)cn2c1Cl)N1CCC(N2C(=O)COC2=O)CC1` [Compound 142, 3-(1-{[6-bromo-3-chloro-8-(trifluoromethyl)imidazo[1,2-a]pyridin-2-yl]carbonyl}-4-piperidinyl)-1,3-oxazolidine-2,4-dione], the EC50 in assay [1] and in assay [2] was 70 nM throughout.
Take `O=C(c1nc2c(C(F)(F)F)cc(Br)cn2c1Cl)N1CCC(N2CCCC2=O)CC1` [Compound 143, 1-(1-{[6-bromo-3-chloro-8-(trifluoromethyl)imidazo[1,2-a]pyridin-2-yl]carbonyl}-4-piperidinyl)-2-pyrrolidinone]: the EC50 in assay [1] was 480 nM; in assay [2] it was 200 nM.
For `O=C(c1nc2c(C(F)(F)F)cc(OC(F)F)cn2c1Cl)N1CCC(N2CCOC2=O)CC1` [Compound 144, 3-(1-{[3-chloro-6-[(difluoromethyl)oxy]-8-(trifluoromethyl)imidazo[1,2-a]pyridin-2-yl]carbonyl}-4-piperidinyl)-1,3-oxazolidin-2-one] the same measures were 20 nM and 50 nM.
For the compound `O=C(c1nc2c(C(F)(F)F)cc(OC(F)F)cn2c1Cl)N1CCC(N2C(=O)COC2=O)CC1` [Compound 145, 3-(1-{[3-chloro-6-[(difluoromethyl)oxy]-8-(trifluoromethyl)imidazo[1,2-a]pyridin-2-yl]carbonyl}-4-piperidinyl)-1,3-oxazolidine-2,4-dione], the EC50 in assay [1] and in assay [2] was 50 nM in each case.
For the compound `O=C(c1nc2c(C(F)(F)F)cc(-c3ccco3)cn2c1Cl)N1CCC(N2CCOC2=O)CC1` [Compound 146, 3-(1-{[3-chloro-6-(2-furanyl)-8-(trifluoromethyl)imidazo[1,2-a]pyridin-2-yl]carbonyl}-4-piperidinyl)-1,3-oxazolidin-2-one], the EC50 in assay [1] was 20 nM; in assay [2], 30 nM.
As for `O=C(c1nc2c(C(F)(F)F)cc(-c3cc[nH]c3)cn2c1Cl)N1CCC(N2CCOC2=O)CC1` [Compound 147, 3-(1-{[3-chloro-6-(1H-pyrrol-3-yl)-8-(trifluoromethyl)imidazo[1,2-a]pyridin-2-yl]carbonyl}-4-piperidinyl)-1,3-oxazolidin-2-one], the EC50 in assay [1] and in assay [2] was 20 nM throughout.
In the case of `O=C(c1nc2c(C(F)(F)F)cc(-c3cn[nH]n3)cn2c1Cl)N1CCC(N2CCOC2=O)CC1` [Compound 148, 3-(1-{[3-chloro-6-(2H-1,2,3-triazol-4-yl)-8-(trifluoromethyl)imidazo[1,2-a]pyridin-2-yl]carbonyl}-4-piperidinyl)-1,3-oxazolidin-2-one], the EC50 in assay [1] stood at 220 nM; in assay [2], 540 nM.
For the compound `O=C(c1nc2c(C(F)(F)F)cc(-c3ncc[nH]3)cn2c1Cl)N1CCC(N2CCOC2=O)CC1` [Compound 149, 3-(1-{[3-chloro-6-(1H-imidazol-2-yl)-8-(trifluoromethyl)imidazo[1,2-a]pyridin-2-yl]carbonyl}-4-piperidinyl)-1,3-oxazolidin-2-one], the results for the EC50 in assay [1] and in assay [2] were 2250 nM and 80 nM, respectively.
For `O=C(c1nc2c(C(F)(F)F)cc(-c3ccc[nH]3)cn2c1Cl)N1CCC(N2CCOC2=O)CC1` [Compound 150, 3-(1-{[3-chloro-6-(1H-pyrrol-2-yl)-8-(trifluoromethyl)imidazo[1,2-a]pyridin-2-yl]carbonyl}-4-piperidinyl)-1,3-oxazolidin-2-one], the EC50 in assay [1] worked out at 230 nM; in assay [2], 450 nM.
As for `Cc1cc(C(F)(F)F)c2nc(C(=O)N3CCC(N4CCOC4=O)CC3)c(Cl)n2c1` [Compound 151, 3-(1-{[3-chloro-6-methyl-8-(trifluoromethyl)imidazo[1,2-a]pyridin-2-yl]carbonyl}-4-piperidinyl)-1,3-oxazolidin-2-one], the EC50 in assay [1] was determined as 650 nM; in assay [2], 500 nM.
With `CCc1cc(C(F)(F)F)c2nc(C(=O)N3CCC(N4CCOC4=O)CC3)c(Cl)n2c1` [Compound 152, 3-(1-{[3-chloro-6-ethyl-8-(trifluoromethyl)imidazo[1,2-a]pyridin-2-yl]carbonyl}-4-piperidinyl)-1,3-oxazolidin-2-one], the results for the EC50 in assay [1] and in assay [2] were 50 nM and 70 nM, respectively.
